# Assay results reported in BindingDB's records for doi:10.1016/s0014-5793(97)00196-8 (Merck Research Laboratories, 1997).
# Non-standard residues stand in square brackets, D forms with d. Residues, ends and D or L forms follow the SMILES beside them.
# Target: T1, Galanin receptor type 2 (Rattus norvegicus, UniProt O08726)
# T1 sequence (O08726 whole entry): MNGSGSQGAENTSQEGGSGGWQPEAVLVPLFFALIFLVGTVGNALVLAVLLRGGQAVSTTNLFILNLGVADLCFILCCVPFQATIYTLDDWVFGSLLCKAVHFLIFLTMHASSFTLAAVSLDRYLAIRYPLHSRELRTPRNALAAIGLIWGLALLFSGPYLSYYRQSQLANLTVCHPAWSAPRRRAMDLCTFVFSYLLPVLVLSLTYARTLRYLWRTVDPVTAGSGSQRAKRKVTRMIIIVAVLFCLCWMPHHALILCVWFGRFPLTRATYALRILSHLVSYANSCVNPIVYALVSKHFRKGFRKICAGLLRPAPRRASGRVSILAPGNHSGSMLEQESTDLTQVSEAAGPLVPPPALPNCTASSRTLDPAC
row,Molecule,Ki
1,CC[C@H](C)[C@H](NC(=O)[C@H](C)NC(=O)[C@H](Cc1c[nH]cn1)NC(=O)[C@@H]1CCCN1C(=O)CNC(=O)[C@H](CC(C)C)NC(=O)[C@H](CC(C)C)NC(=O)[C@H](Cc1ccc(O)cc1)NC(=O)CNC(=O)[C@H](C)NC(=O)[C@H](CO)NC(=O)[C@H](CC(N)=O)NC(=O)[C@H](CC(C)C)NC(=O)[C@@H](NC(=O)[C@@H](N)Cc1c[nH]c2ccccc12)[C@@H](C)O)C(=O)N[C@@H](CC(=O)O)C(=O)N[C@@H](CC(N)=O)C(=O)N[C@@H](Cc1c[nH]cn1)C(=O)N[C@@H](CCCNC(=N)N)C(=O)N[C@@H](CO)C(=O)N[C@@H](Cc1ccccc1)C(=O)N[C@@H](CO)C(=O)N[C@@H](CC(=O)O)C(=O)N[C@@H](CCCCN)C(=O)N[C@@H](Cc1c[nH]cn1)C(=O)NCC(=O)N[C@@H](CC(C)C)C(=O)N[C@H](C(N)=O)[C@@H](C)O [Galanin Porcine 2-29],0.0029 µM
2,H-GWTLNSAGYLLGPPPALALA-NH2 [M40],0.0019 µM
3,"CC[C@H](C)[C@H](NC(=O)[C@H](C)NC(=O)[C@H](Cc1c[nH]cn1)NC(=O)[C@@H]1CCCN1C(=O)CNC(=O)[C@H](CC(C)C)NC(=O)[C@H](CC(C)C)NC(=O)[C@H](Cc1ccc(O)cc1)NC(=O)CNC(=O)[C@H](C)NC(=O)[C@H](CO)NC(=O)[C@H](CC(N)=O)NC(=O)[C@H](CC(C)C)NC(=O)[C@@H](N)[C@@H](C)O)C(=O)N[C@@H](CC(=O)O)C(=O)N[C@@H](CC(N)=O)C(=O)N[C@@H](Cc1c[nH]cn1)C(=O)N[C@@H](CCCNC(=N)N)C(=O)N[C@@H](CO)C(=O)N[C@@H](Cc1ccccc1)C(=O)N[C@@H](CO)C(=O)N[C@@H](CC(=O)O)C(=O)N[C@@H](CCCCN)C(=O)N[C@@H](Cc1c[nH]cn1)C(=O)NCC(=O)N[C@@H](CC(C)C)C(=O)N[C@H](C(N)=O)[C@@H](C)O [Galanin (3-29), rat]",1 µM
4,CC(C)C[C@H](NC(=O)[C@H](CC(C)C)NC(=O)[C@@H](Cc1c[nH]c2ccccc12)NC(=O)[C@H](Cc1ccccc1)NC(=O)[C@@H](Cc1c[nH]c2ccccc12)NC(=O)[C@H](CCC(N)=O)NC(=O)[C@H](CCC(N)=O)NC(=O)[C@@H]1CCCN1C(=O)[C@H](CCCCN)NC(=O)[C@@H]1CCCN1C(=O)[C@@H](CCCNC(=N)N)NC(=O)[C@@H]1CCCN1C(=O)CNC(=O)[C@H](CC(C)C)NC(=O)[C@H](CC(C)C)NC(=O)[C@H](Cc1ccc(O)cc1)NC(=O)CNC(=O)[C@H](C)NC(=O)[C@H](CO)NC(=O)[C@H](CC(N)=O)NC(=O)[C@H](CC(C)C)NC(=O)[C@@H](NC(=O)[C@H](Cc1c[nH]c2ccccc12)NC(=O)CN)[C@@H](C)O)C(N)=O [Gal(1-13)-Std I] (H-GWTLNSAGYLLGP[dR]PKPQQ[dW]F[dW]LL-NH2),0.023 µM
